The nature of assay [1]: Selectivity ratio of EC50 for antiviral activity against multidrug-resistant HIV1 NL4-3 KY24 infected in human TZM-bl cells to EC50 for antiviral activity against wild-type HIV1 NL4-3 infected in human TZM-bl cells. The assay is classed as functional.
For assay [2], the system named is Human immunodeficiency virus 1. The assay is described as follows: Antiviral activity against multidrug-resistant HIV1 NL4-3 SLK19 infected in human TZM-bl cells preincubated for 18 hrs followed by viral infection and measured after 48 hrs by luciferase reporter gene assay. It counts as functional, organism-based. The following applies: Human immunodeficiency virus 1, NL4-3 SLK19, TZM-bl.

Assay [3] is described as follows: Selectivity ratio of EC50 for antiviral activity against multidrug-resistant HIV1 NL4-3 VSL20 infected in human TZM-bl cells to EC50 for antiviral activity against wild-type HIV1 NL4-3 infected in human TZM-bl cells. It counts as functional.
In assay [4] the test system is Human immunodeficiency virus 1. The assay is described as follows: Antiviral activity against wild-type HIV1 NL4-3 infected in human TZM-bl cells preincubated for 18 hrs followed by viral infection and measured after 48 hrs by luciferase reporter gene assay. The assay is classed as functional, organism-based. As to conditions: Human immunodeficiency virus 1, NL4-3, TZM-bl. For orientation: In a reporter assay the amount or activity of a reporter protein is the signal.

Assay [5] can be described thus: Selectivity ratio of EC50 for antiviral activity against multidrug-resistant HIV1 NL4-3 SLK19 infected in human TZM-bl cells to EC50 for antiviral activity against wild-type HIV1 NL4-3 infected in human TZM-bl cells. The assay is classed as functional.
Assay [6] has as its target Protease (Human immunodeficiency virus 1, UniProt Q9YQ12, A71V/I50V). The assay is described as follows: Inhibition of HIV1 NL4-3 protease I50V/A71V mutant expressed in Escherichia coli TAP-106 cells using EDANS/DABCYL-labelled 10-amino acid containing natural MA/CA cleavage site as substrate preincubated for 1 hr followed by substrate addition and measured for 60 mins by FRET assay.

The target of assay [7] is Protease (Human immunodeficiency virus 1, UniProt Q9YQ12, I84V). Briefly: Inhibition of HIV1 NL4-3 protease I84V mutant expressed in Escherichia coli TAP-106 cells using EDANS/DABCYL-labelled 10-amino acid containing natural MA/CA cleavage site as substrate preincubated for 1 hr followed by substrate addition and measured for 60 mins by FRET assay.
The test system of assay [8] is Human immunodeficiency virus 1. The assay is described as follows: Antiviral activity against multidrug-resistant HIV1 NL4-3 KY24 infected in human TZM-bl cells preincubated for 18 hrs followed by viral infection and measured after 48 hrs by luciferase reporter gene assay. The assay is classed as functional, organism-based. As to conditions: Human immunodeficiency virus 1, NL4-3 KY24, TZM-bl.

For assay [9], the system named is Human immunodeficiency virus 1. Briefly: Antiviral activity against multidrug-resistant HIV1 NL4-3 VSL20 infected in human TZM-bl cells preincubated for 18 hrs followed by viral infection and measured after 48 hrs by luciferase reporter gene assay. It counts as functional, organism-based. The following applies: Human immunodeficiency virus 1, NL4-3 VSL20, TZM-bl.

In assay [10] the test system is Human immunodeficiency virus 1. The assay is described as follows: Potency index, ratio of darunavir EC50 to test compound EC50 for antiviral activity against multidrug-resistant HIV1 NL4-3 KY24 infected in human TZM-bl cells. It counts as functional.

Chain of Protease (Human immunodeficiency virus 1, UniProt Q9YQ12, I84V) (Q9YQ12 entry or part of it I84V): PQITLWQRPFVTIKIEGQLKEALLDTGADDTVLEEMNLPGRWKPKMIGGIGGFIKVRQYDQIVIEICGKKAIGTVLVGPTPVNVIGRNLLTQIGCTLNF
Chain of Protease (Human immunodeficiency virus 1, UniProt Q9YQ12, A71V/I50V) (Q9YQ12 entry or part of it A71V/I50V): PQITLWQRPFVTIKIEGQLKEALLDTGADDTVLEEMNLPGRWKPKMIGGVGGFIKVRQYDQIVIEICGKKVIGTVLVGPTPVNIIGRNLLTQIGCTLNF

With `CC[C@H](C)CN(C[C@@H](O)[C@H](Cc1ccccc1)NC(=O)O[C@H]1CO[C@H]2OCC[C@H]21)S(=O)(=O)c1ccc([C@H](C)O)cc1`, the results for the “Ratio EC50” value in assay [1], in assay [3] and in assay [5] were 107, 61 and 11, respectively. In addition, the EC50 – broadly, the concentration at which the effect is half-maximal – in assay [2] came out at 49 nM; in [4], 4.6 nM; in assay [8], 490 nM; in assay [9], 281 nM. The Ki (commonly a measure of affinity in units of concentration, obtained from inhibition or displacement) at Protease [6] amounted to 0.093 nM; at Protease [7], 0.111 nM.

As for `CC(C)CN(C[C@@H](O)[C@H](Cc1ccccc1)NC(=O)O[C@H]1CO[C@H]2OCC[C@H]21)S(=O)(=O)c1ccc([C@H](O)CO)cc1`, the 50% effective concentration (EC50) in assay [4] was 189 nM. This molecule came in with a Ki on Protease [7] of 0.283 nM.

With `CCC(CC)CN(C[C@@H](O)[C@H](Cc1ccccc1)NC(=O)O[C@H]1CO[C@H]2OCC[C@H]21)S(=O)(=O)c1ccc(CO)cc1`, the “Ratio EC50” value in [1] is 118; in assay [3], 101; in assay [5], 9; in [10], 2. Also, the half-maximal effective concentration (EC50) in [2] came to 36 nM; in assay [4], 4.2 nM; in assay [8] it was 495 nM; in assay [9], 426 nM. Further, the inhibition constant (Ki) came to 0.055 nM at Protease [6] and 0.005 nM on Protease [7].

Consider `CC[C@H](C)CN(C[C@@H](O)[C@H](Cc1ccccc1)NC(=O)O[C@H]1CO[C@H]2OCC[C@H]21)S(=O)(=O)c1ccc([C@@H](C)O)cc1`, for which the “Ratio EC50” value in assay [1] was found to be 81; in [3] it was 69; in assay [5] it was 22. For the same molecule, the EC50 in assay [2] turned out to be 91 nM; in assay [4], 4.2 nM; in [8], 342 nM; in assay [9], 291 nM. The figures for the inhibition constant Ki on Protease [6] and at Protease [7] were 0.132 nM and 0.095 nM, respectively.

In assay [4], `CC(C)CN(C[C@@H](O)[C@H](Cc1ccccc1)NC(=O)O[C@H]1CO[C@H]2OCC[C@H]21)S(=O)(=O)c1ccc([C@@H](O)CO)cc1` gave an EC50 of 176 nM. In addition, the inhibition constant Ki on Protease [6] came out at 0.09 nM; at Protease [7] it was 0.098 nM.

For the molecule `CC(C)CN(C[C@@H](O)[C@H](Cc1ccccc1)NC(=O)O[C@H]1CO[C@H]2OCC[C@H]21)S(=O)(=O)c1ccc([C@H](C)O)cc1`, the EC50 turned out to be 31 nM in assay [2], 4.7 nM in assay [4], 352 nM in assay [8] and 117 nM in [9].

With `CC(C)CN(C[C@@H](O)[C@H](Cc1ccccc1)NC(=O)O[C@H]1CO[C@H]2OCC[C@H]21)S(=O)(=O)c1ccc([C@@H](C)O)cc1`, the EC50 in assay [2] amounted to 100 nM; in assay [4], 7.5 nM; in assay [8], 360 nM; in [9], 148 nM.

In the case of `CC[C@H](C)CN(C[C@@H](O)[C@H](Cc1ccccc1)NC(=O)O[C@H]1CO[C@H]2OCC[C@H]21)S(=O)(=O)c1ccc([C@@H](O)CO)cc1`, the concentration giving a half-maximal response (EC50) in assay [4] stood at 80 nM. At Protease [7], this molecule yielded an inhibition constant Ki of 0.216 nM.

Regarding `CCC(CC)CN(C[C@@H](O)[C@H](Cc1ccccc1)NC(=O)O[C@H]1CO[C@H]2OCC[C@H]21)S(=O)(=O)c1ccc([C@H](O)CO)cc1`, the entries for the “Ratio EC50” value in assay [1], in [3] and in [5] were 28, 10 and 4, respectively. In addition, the EC50 was determined as 151 nM in assay [2], 41 nM in [4], 1150 nM in assay [8] and 417 nM in [9]. For the same molecule, the results for the Ki at Protease [6] and at Protease [7] were 0.22 nM and 0.134 nM, respectively.

In the case of `CC[C@H](C)CN(C[C@@H](O)[C@H](Cc1ccccc1)NC(=O)O[C@H]1CO[C@H]2OCC[C@H]21)S(=O)(=O)c1ccc(CO)cc1`, the “Ratio EC50” value in assay [1] was determined as 191; in [3] it was 54; in assay [5], 9. The EC50 in [2] amounted to 52 nM; in [4] it was 5.7 nM; in [8], 1090 nM; in [9] it was 310 nM. The figures for the Ki at Protease [6] and on Protease [7] were 0.08 nM and 0.01 nM, respectively.

In turn, `CC[C@H](C)CN(C[C@@H](O)[C@H](Cc1ccccc1)NC(=O)O[C@H]1CO[C@H]2OCC[C@H]21)S(=O)(=O)c1ccc([C@H](O)CO)cc1` displayed an EC50 in [4] of 92 nM. The molecule further displayed an inhibitory constant (Ki) on Protease [7] of 0.504 nM.

Take `CCC(CC)CN(C[C@@H](O)[C@H](Cc1ccccc1)NC(=O)O[C@H]1CO[C@H]2OCC[C@H]21)S(=O)(=O)c1ccc([C@@H](O)CO)cc1`: the “Ratio EC50” value in assay [1] came out at 13; in assay [3] it was 3; in [5], 3. The EC50 in assay [2] came out at 116 nM; in assay [4], 40 nM; in assay [8] it was 507 nM; in assay [9], 100 nM. Besides, the values for the Ki at Protease [6] and at Protease [7] were 0.074 nM and 0.057 nM, respectively.

Regarding `CCC(CC)CN(C[C@@H](O)[C@H](Cc1ccccc1)NC(=O)O[C@H]1CO[C@H]2OCC[C@H]21)S(=O)(=O)c1ccc([C@H](C)O)cc1`, the EC50 in [2] was 26 nM; in assay [4], 4.4 nM; in assay [8], 196 nM; in assay [9], 112 nM.

Take `CCC(CC)CN(C[C@@H](O)[C@H](Cc1ccccc1)NC(=O)O[C@H]1CO[C@H]2OCC[C@H]21)S(=O)(=O)c1ccc([C@@H](C)O)cc1`: the half-maximal effective concentration (EC50) in [2] was 32 nM; in assay [4], 5.1 nM; in assay [8], 345 nM; in assay [9], 420 nM.

For the origin of these results see ChEMBL document CHEMBL4311955, “HIV-1 Protease Inhibitors Incorporating Stereochemically Defined P2' Ligands To Optimize Hydrogen Bonding in the Substrate Envelope” (J Med Chem, 2019).
